Data taken from PubChem BioAssay AID248 (DTP/NCI, 2004).
Toxic doses and inconclusive results are not listed. No stated cut-off is given here; in the data, active means T/C of 150% or more; inactive means T/C below 125%.

Test system: L1210 leukemia ip in BDF1 mice, survival T/C
Assay: NCI In Vivo Anticancer Drug Screen. Data for tumor model L1210 Leukemia (intraperitoneal) in B6D2F1 (BDF1) mice
Conditions: endpoint: mean survival time, schedule: Q04DX002 (ip), vehicle: saline with Tween-80, higher = longer survival
Summary of the method: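 In this screen, tumor-bearing mice given compound are compared to those given vehicle, and their survival values are reported as a treated-to-control quotient.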

Measured: T/C

C=CS(=O)CCCCCCC (stereo not drawn)
inactive: dose: 12.5 mg/kg/injection 106 % of control | dose: 25.0 mg/kg/injection 103 % of control | dose: 50.0 mg/kg/injection 109 % of control
